Assay results: ChEMBL document CHEMBL3734721 (J Med Chem, 2015)
pEC50, pIC50: −log10 of the molar value.

How the values were obtained:
[1] = molecular target: T1, Muscarinic acetylcholine receptor M2 (Homo sapiens, UniProt P08172); test: Antagonist activity at human wild-type M2 receptor expressed in CHO-K1 cells assessed as acetylcholine-induced cAMP by HTRF assay; assay type: functional, cell-based
T1 sequence (P08172 whole entry): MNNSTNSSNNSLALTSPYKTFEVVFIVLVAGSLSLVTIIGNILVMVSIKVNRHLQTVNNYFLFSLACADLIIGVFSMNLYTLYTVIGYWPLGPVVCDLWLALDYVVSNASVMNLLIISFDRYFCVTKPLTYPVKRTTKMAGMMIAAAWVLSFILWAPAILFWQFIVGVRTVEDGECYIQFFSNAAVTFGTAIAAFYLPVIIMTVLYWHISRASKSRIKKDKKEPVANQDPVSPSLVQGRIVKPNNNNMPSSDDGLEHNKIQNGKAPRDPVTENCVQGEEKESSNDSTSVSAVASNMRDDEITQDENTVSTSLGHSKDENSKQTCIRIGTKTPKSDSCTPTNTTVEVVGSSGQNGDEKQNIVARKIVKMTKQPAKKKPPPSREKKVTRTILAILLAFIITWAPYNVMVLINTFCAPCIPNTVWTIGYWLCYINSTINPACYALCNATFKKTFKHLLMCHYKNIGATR

[2] = molecular target: T2, Alpha-2C adrenergic receptor (Homo sapiens, UniProt P18825); test: Agonist activity at human wild-type alpha 2C receptor expressed in CHO-K1 cells assessed as cAMP level by HTRF assay; assay type: functional, cell-based
T2 sequence (P18825 whole entry): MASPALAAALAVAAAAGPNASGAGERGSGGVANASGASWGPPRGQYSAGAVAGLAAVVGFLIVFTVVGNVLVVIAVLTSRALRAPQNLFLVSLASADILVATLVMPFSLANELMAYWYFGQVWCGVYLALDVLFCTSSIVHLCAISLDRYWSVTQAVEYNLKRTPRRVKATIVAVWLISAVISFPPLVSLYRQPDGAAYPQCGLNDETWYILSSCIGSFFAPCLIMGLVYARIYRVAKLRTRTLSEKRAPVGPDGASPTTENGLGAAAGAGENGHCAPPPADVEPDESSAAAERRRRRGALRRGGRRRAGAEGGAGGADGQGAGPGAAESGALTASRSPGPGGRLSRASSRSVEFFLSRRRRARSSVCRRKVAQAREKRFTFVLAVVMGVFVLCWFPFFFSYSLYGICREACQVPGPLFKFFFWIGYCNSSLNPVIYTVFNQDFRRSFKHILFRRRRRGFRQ

[3] = Chemical stability of compound in 0.1N NaOH assessed as compound remaining at 10 mg/ml after 2 days; assay type: physicochemical; details: read-out: Stability
[4] = molecular target: T3, Cholecystokinin receptor type A (Homo sapiens, UniProt P32238); test: Antagonist activity at human wild-type CCKA receptor expressed in CHO-K1 cells assessed as CCK8-induced calcium by FDSS assay; assay type: functional, cell-based
T3 sequence (P32238 whole entry): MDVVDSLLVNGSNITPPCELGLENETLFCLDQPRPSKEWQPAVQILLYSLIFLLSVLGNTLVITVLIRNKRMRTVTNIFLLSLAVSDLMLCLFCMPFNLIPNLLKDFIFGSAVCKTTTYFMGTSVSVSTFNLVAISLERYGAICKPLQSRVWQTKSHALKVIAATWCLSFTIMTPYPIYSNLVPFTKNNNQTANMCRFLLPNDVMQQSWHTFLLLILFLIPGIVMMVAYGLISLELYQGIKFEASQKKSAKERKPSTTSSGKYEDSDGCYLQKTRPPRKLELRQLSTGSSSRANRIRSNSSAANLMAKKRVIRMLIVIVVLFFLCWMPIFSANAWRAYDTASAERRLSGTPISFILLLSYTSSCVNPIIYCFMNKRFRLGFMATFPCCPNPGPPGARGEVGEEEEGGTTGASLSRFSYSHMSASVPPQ

[5] = Chemical stability of compound in DMSO assessed as compound remaining at 10 mg/ml after 1 day at room temperature; assay type: physicochemical; details: read-out: Stability
Adenosine receptor A2a = Adenosine receptor A2a (Homo sapiens, UniProt P29274); test: Antagonist activity at human wild-type A2A receptor expressed in CHO-K1 cells assessed as NECA-induced cAMP by HTRF assay; assay type: functional, cell-based
[6] = Chemical stability of compound in DMSO assessed as compound remaining at 10 mg/ml after 24 days at room temperature under air; assay type: physicochemical; details: read-out: Stability
[7] = Intrinsic clearance in human liver microsomes at 1 uM by HPLC/MS/MS analysis; assay type: ADME; details: read-out: CLH
[8] = molecular target: T4, Alpha-1A adrenergic receptor (Homo sapiens, UniProt P35348); test: Agonist activity at human wild-type alpha 1A receptor expressed in CHO cells assessed as calcium level by HTRF assay; assay type: functional, cell-based
T4 sequence (P35348 whole entry): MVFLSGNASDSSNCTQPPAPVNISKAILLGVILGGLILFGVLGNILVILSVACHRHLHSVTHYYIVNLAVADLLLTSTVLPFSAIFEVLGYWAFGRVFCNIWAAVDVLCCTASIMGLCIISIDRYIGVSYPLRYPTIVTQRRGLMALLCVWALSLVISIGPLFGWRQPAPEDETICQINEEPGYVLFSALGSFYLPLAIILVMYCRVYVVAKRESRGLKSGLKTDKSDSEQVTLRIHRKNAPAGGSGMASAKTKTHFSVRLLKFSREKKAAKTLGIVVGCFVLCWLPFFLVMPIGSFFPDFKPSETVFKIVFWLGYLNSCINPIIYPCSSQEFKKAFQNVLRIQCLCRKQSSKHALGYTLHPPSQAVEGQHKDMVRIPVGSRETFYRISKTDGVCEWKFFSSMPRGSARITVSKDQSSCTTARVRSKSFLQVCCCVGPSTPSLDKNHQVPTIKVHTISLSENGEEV

Cytochrome P450 1A2 = molecular target: T5, Cytochrome P450 1A2 (Homo sapiens, UniProt P05177); test: Inhibition of human CYP1A2 by LC-MS analysis; assay type: ADME
T5 sequence (P05177 whole entry): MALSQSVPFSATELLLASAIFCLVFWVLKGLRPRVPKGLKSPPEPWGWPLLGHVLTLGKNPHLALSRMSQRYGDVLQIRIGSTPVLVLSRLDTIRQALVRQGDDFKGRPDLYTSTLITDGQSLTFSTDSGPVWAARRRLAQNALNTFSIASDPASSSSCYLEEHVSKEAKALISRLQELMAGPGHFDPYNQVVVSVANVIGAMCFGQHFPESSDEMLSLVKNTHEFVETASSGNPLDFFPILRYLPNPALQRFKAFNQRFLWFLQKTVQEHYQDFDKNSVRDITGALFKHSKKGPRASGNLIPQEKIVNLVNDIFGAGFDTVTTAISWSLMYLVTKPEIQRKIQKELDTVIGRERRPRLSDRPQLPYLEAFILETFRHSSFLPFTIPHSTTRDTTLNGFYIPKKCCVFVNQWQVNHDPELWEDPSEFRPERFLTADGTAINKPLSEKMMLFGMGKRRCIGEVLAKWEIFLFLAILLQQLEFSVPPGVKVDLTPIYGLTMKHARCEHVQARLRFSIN

Liver microsome = test: Metabolic stability in human liver microsomes assessed as CN adduct formation at 40 uM for 1 hr by LC/MS analysis; assay type: ADME

Adenosine receptor A2a, sequence (P29274 whole entry): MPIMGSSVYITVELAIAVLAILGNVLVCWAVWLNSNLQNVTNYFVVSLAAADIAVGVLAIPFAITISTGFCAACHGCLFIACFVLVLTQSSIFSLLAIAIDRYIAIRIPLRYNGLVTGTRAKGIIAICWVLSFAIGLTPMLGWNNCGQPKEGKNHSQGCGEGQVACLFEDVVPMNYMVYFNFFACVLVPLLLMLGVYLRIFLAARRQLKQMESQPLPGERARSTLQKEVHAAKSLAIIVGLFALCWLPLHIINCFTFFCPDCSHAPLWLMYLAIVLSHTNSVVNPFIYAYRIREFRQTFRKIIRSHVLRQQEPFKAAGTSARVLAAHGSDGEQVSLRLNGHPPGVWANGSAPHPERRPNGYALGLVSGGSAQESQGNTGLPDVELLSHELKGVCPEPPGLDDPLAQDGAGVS

| pIC50 [1] | pEC50 [2] | remaining at 48 h, 10 mg/ml [3] [%] | pIC50 [4] | remaining at 24 h, 10 mg/ml [5] [%] | pIC50 (Adenosine receptor A2a) | remaining at 576 h, 10 mg/ml [6] [%] | microsomal CLint at 1 µM [7] [µL/min/mg] | pEC50 [8] | pIC50 (Cytochrome P450 1A2) | Stability (Liver microsome) | SMILES |
| --- | --- | --- | --- | --- | --- | --- | --- | --- | --- | --- | --- |
| < 5.30 | < 5.30 | 83 | < 5.30 | 97 | < 5.30 | 97 | 11 | < 5.30 | < 5.00 | Stable | CB1C=Cc2c(cccc2OCC(O)CN(C)C)N1 (configuration not stated) |
| < 5.30 | < 5.30 | 82 | < 5.30 | 96 | < 5.30 | 98 | 8.7 | < 5.30 | 5.50 | Stable | CB1C=Cc2cccc(OCC(O)CNC(C)C)c2N1 (configuration not stated) |
